Experimental data: patent US20160083397A1, “PARTHENOLIDE DERIVATIVES AND THEIR MODULATION OF PROCESSES CONTROLLED BY REGULATED TRANSLATION” (THE BOARD OF TRUSTEES OF THE UNIVERSITY OF ARKANSAS, priority 2013, published 2016)

Assays:
SK-MEL-2 = assay: NCI 60-cell line five dose screen: SK-MEL-2; conditions: SK-MEL-2, Melanoma
TK-10 = assay: NCI 60-cell line five dose screen: TK-10; conditions: TK-10, Renal Cancer
RXF 393 = assay: NCI 60-cell line five dose screen: RXF 393; conditions: RXF 393, Renal Cancer
HCC-2998 = assay: NCI 60-cell line five dose screen: HCC-2998; conditions: HCC-2998, Colon Cancer

| Substance | GI50 (SK-MEL-2) | CC50 (SK-MEL-2; read-out: LC50) | CC50 (ACHN) | GI50 (TK-10) | CC50 (TK-10; read-out: LC50) | GI50 (RXF 393) | CC50 (RXF 393; read-out: LC50) | GI50 (HCC-2998) | CC50 (HCC-2998; read-out: LC50) |
| --- | --- | --- | --- | --- | --- | --- | --- | --- | --- |
| 13-(2-iodoimidazole)parthenolide [PNR-5-65] | 18.6 µM | 66.1 µM | – | – | – | – | – | – | – |
| (E)-13-(3-thiopheno)parthenolide [PNR-5-53] | – | – | > 100 µM | 34.7 µM | > 100 µM | 18.1 µM | > 100 µM | 33.8 µM | > 100 µM |
